The molecules below were run against T1, human H3 receptors (Homo sapiens, UniProt Q9Y5N1) (assay: cAMP quantification assay for human H3 receptor testing). Settings: CHO-K1 cells expressing human H3 receptors; inhibition of agonist-induced decrease of cAMP; 100 nM histamine, 10 μM forskolin; read-out: Potency range (IC50 values).
T1 construct: host or cells: CHO-K1
Format: cell-based
Method in brief: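 CHO-K1 cells expressing human H3 (10,000/well) were preincubated 30 min at 37 °C with compound in PBS containing 1 mM IBMX and 0.03% BSA. They were then challenged 30 min with agonist solution (100 nM histamine plus 10 μM forskolin). cAMP was quantified by enzyme-complementation luminescence, with 8 concentrations in triplicate at 1% DMSO.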

T1 sequence (Q9Y5N1 whole entry): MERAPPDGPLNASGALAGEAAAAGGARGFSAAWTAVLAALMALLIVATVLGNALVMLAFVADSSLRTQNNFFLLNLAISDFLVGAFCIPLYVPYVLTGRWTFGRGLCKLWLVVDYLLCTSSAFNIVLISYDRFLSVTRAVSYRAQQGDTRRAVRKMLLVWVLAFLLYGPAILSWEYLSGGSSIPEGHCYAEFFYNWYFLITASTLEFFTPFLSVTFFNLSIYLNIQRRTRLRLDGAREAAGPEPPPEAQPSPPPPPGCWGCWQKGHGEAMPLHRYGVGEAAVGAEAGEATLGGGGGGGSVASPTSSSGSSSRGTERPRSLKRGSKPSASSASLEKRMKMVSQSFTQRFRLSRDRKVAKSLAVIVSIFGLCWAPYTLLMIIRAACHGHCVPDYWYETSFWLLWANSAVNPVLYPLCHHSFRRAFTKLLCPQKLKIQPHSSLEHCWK

IC50, < 100 nM:
O=C(N1CCCN(C2CCC2)CC1)N1CC(Oc2ccc3ccccc3c2)C1 [Example 152, 1-cyclobutyl-4-{[3-(naphthalen-2-yloxy)azetidin-1-yl]carbonyl}-1,4-diazepane]
Cn1ccc2cc(OC3CN(C(=O)N4CCCN(C5CCC5)CC4)C3)ccc21 [Example 155, 5-({1-[(4-cyclobutyl-1,4-diazepan-1-yl)carbonyl]azetidin-3-yl}oxy)-1-methyl-1H-indole]
O=C(NC1CN(C(=O)N2CCCN(C3CCC3)CC2)C1)C1CCCCC1 [Example 141, N-{1-[(4-cyclobutyl-1,4-diazepan-1-yl)carbonyl]azetidin-3-yl}cyclohexanecarboxamide]
CN(C(=O)c1ccc(Cl)cc1)C1CN(C(=O)N2CCCN(C3CCC3)CC2)C1 [Example 142, 4-chloro-N-{1-[(4-cyclobutyl-1,4-diazepan-1-yl)carbonyl]azetidin-3-yl}-N-methylbenzamide]
O=C(N1CCCN(C2CCC2)CC1)N1CC(Oc2ccc(F)cc2)C1 [Example 13, 1-cyclobutyl-4-{[3-(4-fluorophenoxy)azetidin-1-yl]carbonyl}-1,4-diazepane]
O=C(NCC1CC1)c1ccc(OC2CN(C(=O)N3CCCN(C4CCC4)CC3)C2)cn1 [Example 35, 5-({1-[(4-cyclobutyl-1,4-diazepan-1-yl)carbonyl]azetidin-3-yl}oxy)-N-(cyclopropylmethyl)pyridine-2-carboxamide]
O=C(N1CCCN(C2CCC2)CC1)N1CC(Oc2cncc(F)c2)C1 [Example 45, 1-cyclobutyl-4-({3-[(5-fluoropyridin-3-yl)oxy]azetidin-1-yl}carbonyl)-1,4-diazepane]
Cc1ccc(N(C)C(=O)C2CN(C(=O)N3CCCN(C4CCC4)CC3)C2)cn1 [Example 145, 1-[(4-cyclobutyl-1,4-diazepan-1-yl)carbonyl]-N-methyl-N-(6-methylpyridin-3-yl)azetidine-3-carboxamide]
O=C(N1CCCN(C2CCC2)CC1)N1CC(Oc2cccc(Cl)c2)C1 [Example 32, 1-{[3-(3-chlorophenoxy)azetidin-1-yl]carbonyl}-4-cyclobutyl-1,4-diazepane]
CN1CCN(Cc2ccc(OC3CN(C(=O)N4CCCN(C5CCC5)CC4)C3)cc2)CC1 [Example 20, 1-cyclobutyl-4-[(3-{4-[(4-methylpiperazin-1-yl)methyl]phenoxy}azetidin-1-yl)carbonyl]-1,4-diazepane]
CN(C(=O)C1CCCCC1)C1CN(C(=O)N2CCCN(C3CCC3)CC2)C1 [Example 144, N-{1-[(4-cyclobutyl-1,4-diazepan-1-yl)carbonyl]azetidin-3-yl}-N-methylcyclohexanecarboxamide]
Cc1nn(C)c(C)c1-c1ccc(OC2CN(C(=O)N3CCCN(C4CCC4)CC3)C2)cc1 [Example 150, 1-cyclobutyl-4-({3-[4-(1,3,5-trimethyl-1H-pyrazol-4-yl)phenoxy]azetidin-1-yl}carbonyl)-1,4-diazepane]
O=C(N1CCCN(C2CCC2)CC1)N1CC(Oc2ccc(OC(F)(F)F)cc2)C1 [Example 88, 1-cyclobutyl-4-({3-[4-(trifluoromethoxy)phenoxy]azetidin-1-yl}carbonyl)-1,4-diazepane]
N#Cc1ccc(OC2CN(C(=O)N3CCN(C4CCC4)CC3)C2)cc1 [Example 40, 4-({1-[(4-cyclobutylpiperazin-1-yl)carbonyl]azetidin-3-yl}oxy)benzonitrile]
O=C(C1CN(C(=O)N2CCCN(C3CCC3)CC2)C1)N1CCCC1 [Example 127, 1-cyclobutyl-4-{[3-(pyrrolidin-1-ylcarbonyl)azetidin-1-yl]carbonyl}-1,4-diazepane]
CNC(=O)c1ccc(OC2CN(C(=O)N3CCCN(C4CCC4)CC3)C2)c(F)c1 [Example 43, 4-({1-[(4-cyclobutyl-1,4-diazepan-1-yl)carbonyl]azetidin-3-yl}oxy)-3-fluoro-N-methylbenzamide]
N#Cc1cccc(OC2CN(C(=O)N3CCCN(C4CCC4)CC3)C2)c1 [Example 30, 3-({1-[(4-cyclobutyl-1,4-diazepan-1-yl)carbonyl]azetidin-3-yl}oxy)benzonitrile]
